Experimental findings from the NIST ThermoML archive (doi:10.1021/je060411g) are described below.

Data set [1] can be described thus: Molar enthalpy of transition or fusion.

± gives the expanded uncertainty stated by the source.

With `CC(C)(C)CO` [2,2-dimethyl-1-propanol], the Triple point temperature reads like this: (Crystal 1) 328.2 ± 0.4 K; (Crystal 2) 233.3 ± 1 K. In addition, the “Molar enthalpy of transition or fusion” value in data set [1] (Crystal 1) was 2.9 ± 0.2 kJ/mol; in data set [1] (Crystal 2), 4.1 ± 0.2 kJ/mol.
Regarding `CCC(C)CO` (stereo not drawn) [2-methyl-1-butanol], the Glass transition temperature (Adiabatic calorimetry) is -155 ± 5 °C.
Regarding `CCC(C)(C)O` [2-methylbutan-2-ol], the Triple point temperature by setting is: (Crystal 1) 264.7 ± 0.4 K; (Crystal 2) 215 ± 1 K; (Crystal 3) 145.8 ± 0.4 K. Further, the “Molar enthalpy of transition or fusion” value in data set [1] (Crystal 1) worked out at 2 ± 0.2 kJ/mol; in data set [1] (Crystal 3), 0.9 ± 0.1 kJ/mol.
As to `CCC(O)CC` [3-pentanol], the Glass transition temperature is -143 ± 5 °C. For the same compound, the Triple point temperature (Crystal) was 203.2 ± 0.4 K. Also, in data set [1] (Crystal 1), the “Molar enthalpy of transition or fusion” value came out at 1.66 ± 0.2 kJ/mol.
